The values that follow come from the Deep4Chem optical property database.

The structures appear in SMILES notation. Values joined by “and” are separate entries in the source; they are usually repeats but may differ in a detail not shown here. Identical values can stand only once.

The data set in a line: solvent given as SMILES.

`c1ccc2cc3cc(-c4cc(-c5nccs5)nc(-c5nccs5)c4)ccc3cc2c1`: the emission maximum was 474 nm (in CC#N), 376 nm (in CCCCCC), 377 nm (in CO) and 452 nm (in ClC(Cl)Cl).

The molecule `CCCCC1(CCCC)c2cc(C#Cc3ccc(C=C4c5ccccc5C=Cc5ccccc54)cc3)ccc2-c2ccc(C#Cc3ccc(C=C4c5ccccc5C=Cc5ccccc54)cc3)cc21` had an emission maximum (in C1CCOC1) of 405 nm.

Under “in ClCCl”, `c1ccc(C2(c3ccccc3)c3ccc4ccc5ccccc5c4c3-c3c2ccc2ccc4ccccc4c32)cc1` yielded an emission maximum of 421 nm.

In turn, `C(#Cc1cccc2cc(-c3ccccc3)c3cc(-c4cc[b-]5c(c4)c(-c4ccccc4)cc4cccc(C#Cc6ccccc6)[n+]54)cc[b-]3[n+]12)c1ccccc1` yielded an emission maximum (in C1CCCCC1) of 630 nm.

With `CCC1=C(C)C2=Cc3c(I)c(I)cn3[B-](F)(F)[N+]2=C1C`, the emission maximum is, setting by setting: (in C1CCCCC1) 537 nm; (in CC(C)=O) 544 nm; (in CCO) 541.5 nm; (in CCOC(C)=O) 539.5 nm; (in CO) 541.5 nm; (in OCC(F)(F)F) 538 nm.

As to `CCCN1/C(=C/C=C(/C=C/C2=[N+](CCC)c3ccccc3C2(C)C)c2cc[n+](C)cc2)C(C)(C)c2ccccc21`, the emission maximum is listed as 658 nm (in CO), 657 nm (in CS(C)=O) and 658 nm (in O).

For the molecule `COc1c(Br)c2cc(=O)oc3ccc4cccc1c4c32`, the emission maximum (in CC1CCCO1) was 487 nm.

Turning to `c1ccc(N2c3ccc4ccccc4c3-c3c4ccccc4nc[n+]3[B-]2(c2ccccc2)c2ccccc2)cc1`, the emission maximum is, setting by setting: (in C1CCC2CCCCC2C1) 642 nm; (in C1CCCCC1) 640 nm; (in C1CCOC1) 665 nm; (in CC#N) 677 nm; (in CC(C)=O) 675 nm; (in CCCCCC) 641 nm. Besides, the emission maximum is 665 nm (in CCOC(C)=O), 680 nm (in CN(C)C=O), 654 nm (in Cc1ccccc1) and 676 nm (in ClC(Cl)Cl).

On to `COc1ccc(N2c3ccc4ccccc4c3-c3c4ccccc4cc[n+]3[B-]2(c2ccccc2)c2ccccc2)cc1`, for which, where the note is “in Cc1ccccc1”, the emission maximum worked out at 641 nm.

`CCCC1(CCC)c2cc(-c3ccco3)ccc2-c2ccc(-c3ccco3)cc21` showed an emission maximum (in C1CCCCC1) of 377 nm.

Regarding `O=Cc1ccc(C=C(c2ccccc2)c2ccccc2)cc1`, the emission maximum (in C1CCOC1) stood at 383 nm.

`COc1ccc(-c2nc(-c3cc(Cl)sc3C)c(-c3cc(Cl)sc3C)[nH]2)cc1` had an emission maximum (in CC#N) of 489 nm.

For `CCOc1ccc(/C=C/C=C/C=C/c2ccc([N+](=O)[O-])cc2)cc1`, the emission maximum by setting is: (in CC1CCCCC1) 488 nm; (in CC#N) 740 nm; (in Cc1ccccc1) 541 nm; (in ClCCl) 694 nm.

The molecule `CN1C(=CC2=C([O-])C(=CC3=[N+](C)c4ccccc4C3(C)C)C2=O)C(C)(C)c2ccccc21` displayed an emission maximum (in ClC(Cl)Cl) of 643 nm.

For the molecule `c1ccc2[nH]ccc2c1`, the emission maximum (in O) was 360 nm and 345 nm and 340 nm.

The molecule `CCOC(=O)C1=C(N)n2c(=O)c3ccccc3c(=O)n2C1c1cccs1` (configuration not stated) came in with an emission maximum (in CS(C)=O) of 439 nm.

Take `c1ccc2c(c1)c1ccccc1n2-c1cc(-c2nc3ccccn3n2)cc(-n2c3ccccc3c3ccccc32)c1`: the emission maximum (in Cc1ccccc1) amounted to 373 nm.

In turn, `N#Cc1cc(-n2c3ccccc3c3ccccc32)nc(-n2c3ccccc3c3ccccc32)n1` had an emission maximum (in Cc1ccccc1) of 471 nm.

In turn, `CCOc1ccc(/C=C/c2nc(N3CCOCC3)c3c([n+]2[O-])CCCC3)cc1` registered an emission maximum (in ClCCl) of 515 nm.

`Cc1ccc(N(c2ccc(C)cc2)c2ccc3c4cccc5c(N(c6ccc(C)cc6)c6ccc(C)cc6)ccc(c6cccc2c63)c54)cc1`: the emission maximum is reported as 546 nm (in C1CCCCC1); 551 nm (in C1CCOC1); 574 nm (in CC#N); 548 nm (in Cc1ccccc1); 568 nm (in ClCCl).

Molecule `COc1ccc(-c2ccc3c(c2)c2cc(-c4ccc(OC)cc4)ccc2n3-c2ccc(C(=O)c3ccc4sc5ccccc5c4c3)cn2)cc1` returned an emission maximum (in Cc1ccccc1) of 479.23 nm and an emission maximum (in c1cc(-n2c3ccccc3c3ccccc32)cc(-n2c3ccccc3c3ccccc32)c1) of 484 nm.

Turning to `Cc1ccc(-c2ccc(/C=C/c3cccs3)cn2)nc1`, for the setting “in CC#N”, the emission maximum is recorded as 422 nm.

`CC(C)(C)c1ccc2c(c1)c1cc(C(C)(C)C)ccc1n2-c1ccc(S(=O)(=O)c2cccc(S(=O)(=O)c3ccc(-n4c5ccc(C(C)(C)C)cc5c5cc(C(C)(C)C)ccc54)cc3)c2)cc1` returned an emission maximum (in Cc1ccccc1) of 422 nm.

As to `CCCCCCCCCCOc1cc(OCCCCCCCCCC)cc(C2=C3C(/C=C/c4ccc(OC)cc4)=CC(/C=C/c4ccc(OC)cc4)=[N+]3[B-](F)(F)n3c(/C=C/c4ccc(OC)cc4)cc(C=Cc4ccc(OC)cc4)c32)c1`, the emission maximum (in ClC(Cl)Cl) was found to be 710 nm.

Consider `O=S1(=O)c2ccc(-c3ccc(-n4c5ccccc5c5ccccc54)cc3)cc2C2(c3ccccc3-c3ccccc32)c2cc(-c3ccc(-n4c5ccccc5c5ccccc54)cc3)ccc21`, for which the emission maximum is, setting by setting: (in CC(C)=O) 443.88 nm; (in CCCCCC) 400.18 nm; (in CN(C)C=O) 455.8 nm; (in Cc1ccccc1) 396.57 nm; (in ClCCl) 432 nm.

Take `N#Cc1c(-n2c3ccc(-c4ccccc4)cc3c3cc(-c4ccccc4)ccc32)c(-n2c3ccc(-c4ccccc4)cc3c3cc(-c4ccccc4)ccc32)c(C#N)c(-n2c3ccc(-c4ccccc4)cc3c3cc(-c4ccccc4)ccc32)c1-n1c2ccc(-c3ccccc3)cc2c2cc(-c3ccccc3)ccc21`: the emission maximum (in Cc1ccccc1) was 577 nm.

Where the note is “in ClCCl”, `CCN(CC)c1ccc2c(c1)oc(=O)c1cnc3c(cnn3-c3ccccc3)c12` displayed an emission maximum of 441 nm.

Molecule `CCCCCCCCOc1ccc(-c2c3c4n(c(-c5ccc(OCCCCCCCC)cc5)c3c3n2[B-](F)(F)[n+]2c(ccc5ccccc52)N=3)[B-](F)(F)[n+]2c(ccc3ccccc32)N=4)cc1` showed an emission maximum (in ClC(Cl)Cl) of 682 nm.

As for `Cc1ccc(N(c2ccc(C)cc2)c2ccc3c(c2)c2cc(N(c4ccc(C)cc4)c4ccc(C)cc4)ccc2n3-c2ccc(-c3nc4cccc5c4n3-c3ccccc3C5(C)C)cc2)cc1`, the emission maximum (in Cc1ccccc1) is listed as 496 nm and the emission maximum (in O=P(c1ccccc1)(c1ccccc1)c1ccccc1Oc1ccccc1P(=O)(c1ccccc1)c1ccccc1) is 491 nm.

`O=Cc1ccc(C#CC(C#Cc2ccc(C=O)o2)=Cc2ccc(C=C(C#Cc3ccc(C=O)o3)C#Cc3ccc(C=O)o3)cc2)o1` displayed an emission maximum (in ClC(Cl)Cl) of 518 nm.

As for `F[B-]1(F)n2cccc2C(c2ccccc2)=C2C=CC(c3cccc(OC4=[N+]5C(=C(c6ccccc6)c6cc(Br)c(Br)n6[B-]5(F)F)C=C4Br)c3)=[N+]21`, for the setting “in ClC(Cl)Cl”, the emission maximum amounted to 568 nm.

`Cc1csc(C)c1C1=C(c2c(C)sc(-c3ccc(-c4nc(-c5ccccc5)c(-c5ccccc5)[nH]4)cc3)c2C)C(F)(F)C(F)(F)C1(F)F`: the emission maximum (in C1CCOC1) worked out at 410 nm.

In turn, `COc1cc(OC)c2cc(-c3ccccc3CC#N)c(=O)oc2c1` gave an emission maximum (in ClC(Cl)Cl) of 422 nm.

Where the note is “in Cc1ccccc1”, `COC(=O)/C(C#N)=c1\s/c(=c2/s/c(=C(/C#N)C(=O)OC)c3cc(-c4ccc(C(F)(F)F)cc4)sc23)c2sc(-c3ccc(C(F)(F)F)cc3)cc12` came in with an emission maximum of 625 nm.

With `CCOC(=O)C1=C(C(=O)OCC)C2(c3ccccc3-c3c(Br)cc(Br)cc32)C2(/C=C/c3ccc(Cl)cc3)c3cc(OC)c(OC)cc3CCN12` (configuration not stated), for the setting “in ClCCl”, the emission maximum is given as 495 nm.

As to `N#Cc1cccc2c(N)c(-c3nn([C@H]4C[C@H](O)[C@@H](CO)O4)c4ncnc(N)c34)ccc12`, the emission maximum (in C1COCCO1) is listed as 488 nm; the emission maximum (in CC#N) is 513 nm; the emission maximum (in CC(C)O) is on record as 514 nm; the emission maximum (in CCO) is recorded as 520 nm; the emission maximum (in CCOC(C)=O) was 494 nm; the emission maximum (in CN(C)C=O) was found to be 524 nm. Further, the emission maximum by setting is: (in CO) 527 nm; (in CS(C)=O) 534 nm; (in OCC(O)CO) 522 nm; (in OCCO) 529 nm.

For `CN(C)c1ccc(/C=C/c2ccc([N+](=O)[O-])c(O)c2)cc1`, the emission maximum by setting is: (in C1CCCCC1) 529 nm; (in C1COCCO1) 633 nm; (in CCCCCCC) 523 nm; (in Cc1ccccc1) 605 nm.

For the setting “in ClC(Cl)Cl”, `CC(C)(C)c1ccc(C2=c3sc(-c4ccc(C(C)(C)C)cc4)cc3=[N+]3C2=Nc2c(-c4ccc(C(C)(C)C)cc4)c4sc(-c5ccc(C(C)(C)C)cc5)cc4n2[B-]3(F)F)cc1` displayed an emission maximum of 793 nm.

`c1cnc(-c2c3ccccc3c(-c3ncccn3)c3ccccc23)nc1`: the emission maximum runs as follows: (in CCO) 440 nm; (in ClCCl) 439 nm.

Molecule `COc1ccc(-c2ccc(-c3ccc(F)cc3)cc2)cc1` displayed an emission maximum (in C1COCCO1) of 352 nm.

In the case of `Cc1cc(C)c(B(c2cc(-c3ccc(C(C)(C)C)cc3)sc2-c2sc(-c3ccc(C(C)(C)C)cc3)cc2P(=O)(c2ccccc2)c2ccccc2)c2c(C)cc(C)cc2C)c(C)c1`, the emission maximum (in CO) came out at 572 nm.

As for `CC(=O)c1ccc(-c2nc3ccc(N(C)C)c(Br)c3s2)cc1`, the emission maximum (in C1CCCCC1) worked out at 424 nm; the emission maximum (in CC#N) was 568 nm; the emission maximum (in CC(C)O) is listed as 580.16 nm; the emission maximum (in CO) was found to be 622 nm; the emission maximum (in CS(C)=O) was determined as 563.56 nm; the emission maximum (in ClC(Cl)Cl) came to 505 nm. Under “in c1ccccc1”, this molecule returned an emission maximum of 472.87 nm.

For `N#Cc1ccc2nc3[nH]c(=O)[nH]c(=O)c3nc2c1`, the emission maximum (in ClCCCl) amounted to 420 nm.

For the setting “in ClCCl”, `CC(C)(C)c1ccc(-n2c(-c3ccc(-c4ccc(N(c5ccccc5)c5ccccc5)cc4)s3)nc3c4ccccc4c4ccccc4c32)cc1` displayed an emission maximum of 419 nm.

Regarding `CC(=O)OCCN1C(=O)c2cccc3c(Oc4ccc(C#N)cc4)ccc(c23)C1=O`, the emission maximum (in ClC(Cl)Cl) stood at 410 nm.

The molecule `CCCCCOc1cc2oc(=O)c3c4occc4c4ccc5cccc6c(c1)c2c3c4c56` had an emission maximum (in C1CCOC1) of 433 nm.
